We go through 3 substances from patent US6197535A, “Methods for purifying and assaying a conus γ-carboxylase” (University of Utah Research Foundation, priority 1999, dated 2001).

The test relates to Conus γ-glutamyl carboxylase (Conus radiatus venom duct microsomes). The test is classed as biochemical. To be noted: for Km: read-out: apparent Km.

For orientation: Km means the substrate concentration at which the rate is half of its maximum. Consider GEEELQENQELIREKSN-NH2 [E.Con-G], for which the Michaelis-Menten constant (Km) was 3400 µM.
Broadly, the IC50 is the concentration that inhibits the measured activity by half. Take GKDRLTQMKRILKQRGNKAR [Pro (-20 to -1)]: the “enhancement of carboxylation of E.Con-G” value is given as ~ 25%, the “enhancement of carboxylation of FLEEL” value was 40% and the “inhibition of carboxylation of -10.Pro-E.Con-G” value is recorded as “is an inhibitor”. The IC50 (read-out: apparent IC50) was 490 µM.
Take “GKDRLTQMKRILKQRGNKAR-GEEELY-NH2 [wild type substrate]”: the Km was 40 µM.
